Data as given in patent US20220324909A1, “THERAPEUTIC PEPTIDES” (COHBAR, INC., priority 2019, published 2022).
Non-standard residues stand in square brackets, D forms with d. Primed or numbered codes have the meaning given here. No end group written: not given here. PEG12′ = polyethylene glycol moiety of 12 units

How the values were obtained:
3T3-L1 mouse adipocytes = assay: Free fatty acid levels in cultured 3T3-L1 mouse adipocytes and insulin dependence (Example 17); assay type: cell-based; conditions: isoproterenol 0.1 nM; for Free Fatty Acid Levels, Percent of Isoproterenol Control Activity No Insulin: peptide 10 μM alone, relative to isoproterenol treated cells; for Free Fatty Acid Levels, Percent of Isoproterenol Control Activity With Insulin: peptide 10 μM with 0.25 nM insulin, relative to 0.25 nM insulin treated cells
Protocol: The effect of the peptides on fatty acid metabolism can be assessed using an assay to monitor free fatty acid levels produced by cultured cells such as mouse adipocytes. […] Following 3 h incubation, conditioned medium from each well was transferred to a fresh 96-well plate. […] Absorbance values were expressed as percent control activity relative to 0.1 nM isoproterenol treated cells (no insulin) for 10 μM peptide alone or 0.25 nM insulin treated cells (with insulin) for 10 μM peptide in presence of 0.25 nM insulin. […] Data are presented as averages values from 2-3 independent experiments with each data point performed in triplicate.

C2C12 cells = assay: Glucose utilization in cultured C2C12 cells and insulin dependence; assay type: cell-based, mouse; conditions: 22 h; for Glucose Utilization, Percent of Control Activity No Insulin: peptide 10 μM alone, glucose in medium relative to untreated cells; for Glucose Utilization, Percent of Control Activity With Insulin: peptide 10 μM with 5-20 nM insulin, glucose in medium relative to insulin treated cells
Description: The effect of the peptides on glucose homeostasis can be assessed using an assay to monitor glucose utilization by cultured cells such as mouse myotubes. […] C2C12 mouse muscle cell line was purchased from Millipore Sigma (Saint Louis, Mo.). […] Three days after plating the medium was removed and with Differentiation Medium (DMEM/low glucose (1 g/L)+2% Horse Serum+antibiotics) added. […] After 5 days of differentiation, the medium was removed from myotube cultures and replaced with Assay Medium (DMEM/low glucose (1 g/L)+antibiotics). […] Following the 5 h incubation the medium was removed and fresh Assay Medium containing compounds added; 10 μM peptide in absence or presence of 5-20 nM insulin, or 1 mM metformin as a potent stimulator of glucose utilization. […] Following 22 h incubation, conditioned medium from each well was transferred to a fresh 96-well plate. Glucose concentrations in the medium were determined using a Glucose Assay kit (Abcam; Cambridge, Mass.) according to the manufacturer's instructions; absorbance measured using a Cytation 3 plate reader at 570 nm (BioTek, Winooski, Vt.). Absorbance values were expressed as percent control activity relative to untreated treated cells (no insulin) for 10 μM peptide alone or 5-20 nM insulin treated cells (with insulin) for 10 μM peptide in presence of 5-20 nM insulin. Untreated cells were used as reference for basal glucose utilization. The relative standard deviation from plate to plate of untreated control was <10%. Metformin at 1 mM was used as a potent control for increasing glucose utilization. Glucose levels for metformin (1 mM) treatment were <10% of the untreated control value. Data are presented as averages values from 2-3 independent experiments with each data point performed in triplicate.

H4-IIE cells = assay: Glucose production in cultured H4-IIE cells and insulin dependence; assay type: cell-based, rat; conditions: 24 h; for Glucose Production, Percent of Control Activity No Insulin: peptide 10 μM alone, relative to untreated cells; for Glucose Production, Percent of Control Activity With Insulin: peptide 10 μM with 800 μM insulin, relative to insulin treated cells
Protocol: The effect of the peptides on glucose homeostasis can be assessed using an assay to monitor glucose production by cultured cells such as rat hepatocytes. […] Following 24 h incubation, conditioned medium from each well was transferred to a fresh 96-well plate. Glucose concentrations in the medium were determined using a Glucose Assay kit (Abcam; Cambridge, Mass.) according to the manufacturer's instructions; absorbance measured using a Cytation 3 plate reader at 570 nm (BioTek, Winooski, Vt.). […] Untreated cells were used as reference for maximal glucose production. […] Insulin at 800 μM was used as a modest inhibitor glucose production. […] Data are presented as averages values from 2-4 independent experiments with each data point performed in triplicate.

In the case of “25 (RREMVYQCLCG[dA]; cysteine pairing not given here) [compound 25]”, the “Free Fatty Acid Levels, Percent of Isoproterenol Control Activity No Insulin” value (3T3-L1 mouse adipocytes) is reported as 110%, the “Free Fatty Acid Levels, Percent of Isoproterenol Control Activity With Insulin” value (3T3-L1 mouse adipocytes) is reported as 67.4% and the “Glucose Utilization, Percent of Control Activity No Insulin” value (C2C12 cells) is reported as 99.9%. The “Glucose Utilization, Percent of Control Activity With Insulin” value (C2C12 cells) was 77.4%, the “Glucose Production, Percent of Control Activity No Insulin” value (H4-IIE cells) was 108.2% and the “Glucose Production, Percent of Control Activity With Insulin” value (H4-IIE cells) was 65.2%.
For “21 (RRMMGMVFQCLCG[dA]K(PEG12′); cysteine pairing not given here) [compound 21]”, the “Free Fatty Acid Levels, Percent of Isoproterenol Control Activity No Insulin” value (3T3-L1 mouse adipocytes) was 109%, the “Free Fatty Acid Levels, Percent of Isoproterenol Control Activity With Insulin” value (3T3-L1 mouse adipocytes) was 59.1% and the “Glucose Utilization, Percent of Control Activity No Insulin” value (C2C12 cells) was 107.5%. For the same substance, the “Glucose Utilization, Percent of Control Activity With Insulin” value (C2C12 cells) was 86%, the “Glucose Production, Percent of Control Activity No Insulin” value (H4-IIE cells) was 98.4% and the “Glucose Production, Percent of Control Activity With Insulin” value (H4-IIE cells) was 72.7%.
In the case of 23 (RRMVFQCLEG[dA]) [compound 23], the “Free Fatty Acid Levels, Percent of Isoproterenol Control Activity No Insulin” value (3T3-L1 mouse adipocytes) is reported as 104%, the “Free Fatty Acid Levels, Percent of Isoproterenol Control Activity With Insulin” value (3T3-L1 mouse adipocytes) is reported as 57.7% and the “Glucose Utilization, Percent of Control Activity No Insulin” value (C2C12 cells) is reported as 102%. The “Glucose Utilization, Percent of Control Activity With Insulin” value (C2C12 cells) was 86.6%, the “Glucose Production, Percent of Control Activity No Insulin” value (H4-IIE cells) was 104.3% and the “Glucose Production, Percent of Control Activity With Insulin” value (H4-IIE cells) was 57.7%.
With “31 (RRMEVYQCLCG[dA]; not fully specified; printed as RRMEVYQCLCG(dA); cysteine pairing not given here) [compound 31]” the “Free Fatty Acid Levels, Percent of Isoproterenol Control Activity No Insulin” value (3T3-L1 mouse adipocytes) was 113%, the “Free Fatty Acid Levels, Percent of Isoproterenol Control Activity With Insulin” value (3T3-L1 mouse adipocytes) was 94.6% and the “Glucose Utilization, Percent of Control Activity No Insulin” value (C2C12 cells) was 103.7%. The “Glucose Utilization, Percent of Control Activity With Insulin” value (C2C12 cells) was 99.2%, the “Glucose Production, Percent of Control Activity No Insulin” value (H4-IIE cells) was 95.5% and the “Glucose Production, Percent of Control Activity With Insulin” value (H4-IIE cells) was 108.3%.
With 32 (RRMEVYQCLEG[dA]) [compound 32] the “Free Fatty Acid Levels, Percent of Isoproterenol Control Activity No Insulin” value (3T3-L1 mouse adipocytes) was 108%, the “Free Fatty Acid Levels, Percent of Isoproterenol Control Activity With Insulin” value (3T3-L1 mouse adipocytes) was 62.9% and the “Glucose Utilization, Percent of Control Activity No Insulin” value (C2C12 cells) was 103.8%. For the same substance, the “Glucose Utilization, Percent of Control Activity With Insulin” value (C2C12 cells) was 85.0%, the “Glucose Production, Percent of Control Activity No Insulin” value (H4-IIE cells) was 99.5% and the “Glucose Production, Percent of Control Activity With Insulin” value (H4-IIE cells) was 81.9%.
For “20 (KRRMMGMVFQCLCGA; (1)..(1) PEG12; (15)..(15) d-Ala) [compound 20]”, the “Free Fatty Acid Levels, Percent of Isoproterenol Control Activity No Insulin” value (3T3-L1 mouse adipocytes) was 101%, the “Free Fatty Acid Levels, Percent of Isoproterenol Control Activity With Insulin” value (3T3-L1 mouse adipocytes) was 90.7% and the “Glucose Utilization, Percent of Control Activity No Insulin” value (C2C12 cells) was 108%. For the same substance, the “Glucose Utilization, Percent of Control Activity With Insulin” value (C2C12 cells) was 91%, the “Glucose Production, Percent of Control Activity No Insulin” value (H4-IIE cells) was 98.4% and the “Glucose Production, Percent of Control Activity With Insulin” value (H4-IIE cells) was 108.6%.
27 (RRMAYQCLEG[dA]) [compound 27] was tested, and the “Free Fatty Acid Levels, Percent of Isoproterenol Control Activity No Insulin” value (3T3-L1 mouse adipocytes) was 108%, the “Free Fatty Acid Levels, Percent of Isoproterenol Control Activity With Insulin” value (3T3-L1 mouse adipocytes) was 74.2% and the “Glucose Utilization, Percent of Control Activity No Insulin” value (C2C12 cells) was 101.2%. The “Glucose Utilization, Percent of Control Activity With Insulin” value (C2C12 cells) was 106.2%, the “Glucose Production, Percent of Control Activity No Insulin” value (H4-IIE cells) was 101.7% and the “Glucose Production, Percent of Control Activity With Insulin” value (H4-IIE cells) was 98.9%.
For 28 (RRMGYQCLEG[dA]) [compound 28], the “Free Fatty Acid Levels, Percent of Isoproterenol Control Activity No Insulin” value (3T3-L1 mouse adipocytes) was 109%, the “Free Fatty Acid Levels, Percent of Isoproterenol Control Activity With Insulin” value (3T3-L1 mouse adipocytes) was 57.8% and the “Glucose Utilization, Percent of Control Activity No Insulin” value (C2C12 cells) was 103.3%. For the same substance, the “Glucose Utilization, Percent of Control Activity With Insulin” value (C2C12 cells) was 88.2%, the “Glucose Production, Percent of Control Activity No Insulin” value (H4-IIE cells) was 107.4% and the “Glucose Production, Percent of Control Activity With Insulin” value (H4-IIE cells) was 91.4%.
In the case of 24 (RRMVYQCLEG[dA]) [compound 24], the “Free Fatty Acid Levels, Percent of Isoproterenol Control Activity No Insulin” value (3T3-L1 mouse adipocytes) is reported as 108%, the “Free Fatty Acid Levels, Percent of Isoproterenol Control Activity With Insulin” value (3T3-L1 mouse adipocytes) is reported as 59.2% and the “Glucose Utilization, Percent of Control Activity No Insulin” value (C2C12 cells) is reported as 98.8%. The “Glucose Utilization, Percent of Control Activity With Insulin” value (C2C12 cells) was 85.8%, the “Glucose Production, Percent of Control Activity No Insulin” value (H4-IIE cells) was 107.6% and the “Glucose Production, Percent of Control Activity With Insulin” value (H4-IIE cells) was 61.9%.
In the case of 26 (RREMVYQCLEG[dA]) [compound 26], the “Free Fatty Acid Levels, Percent of Isoproterenol Control Activity No Insulin” value (3T3-L1 mouse adipocytes) is reported as 104%, the “Free Fatty Acid Levels, Percent of Isoproterenol Control Activity With Insulin” value (3T3-L1 mouse adipocytes) is reported as 52.8% and the “Glucose Utilization, Percent of Control Activity No Insulin” value (C2C12 cells) is reported as 102.2%. For the same substance, the “Glucose Utilization, Percent of Control Activity With Insulin” value (C2C12 cells) was 98.4%, the “Glucose Production, Percent of Control Activity No Insulin” value (H4-IIE cells) was 111.5% and the “Glucose Production, Percent of Control Activity With Insulin” value (H4-IIE cells) was 103.1%.
